Laboratory results: PubChem BioAssay (NCI)
Where “and” joins values, the source holds several entries; their conditions need not be identical. Equal values may be shown once.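 Tested at 5 concentrations; 48 h exposure; 96-well plates; endpoints linearly interpolated, else capped at highest concentration. GI50 is the concentration that inhibits growth by half. TGI marks complete inhibition of growth.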

How the values were obtained:
Experiment in all cases: inhibition of tumour cell growth, NCI panel, 48 h
[1] = test system: ACHN renal
[2] = test system: SN12C renal
[3] = test system: M14 melanoma
[4] = test system: TK-10 renal
[5] = test system: DMS 273 small cell lung
[6] = test system: IGROV1 ovarian
[7] = test system: UACC-257 melanoma
[8] = test system: NCI-H522 lung
[9] = test system: M19-MEL melanoma
[10] = test system: MDA-MB-435
[11] = test system: T-47D breast

Row | Compound | TGI [1] | TGI [2] | TGI [3] | TGI [4] | TGI [5] | TGI [6] | TGI [7] | TGI [8] | TGI [9] | TGI [10] | TGI [11] | GI50 [2] | GI50 [10] | GI50 [6] | GI50 [7] | GI50 [8]
1 | O=C(c1cccs1)N(C(=S)N1CCN(c2ccccc2)CC1)c1ccccc1 | > 100 µM | > 100 µM | > 100 µM | > 100 µM | > 100 µM | > 100 µM | > 100 µM | > 100 µM | > 100 µM | – | – | – | – | – | – | –
2 | CCOC(=O)C1C/C(C)=C(/C)SCCCS1 (stereo not drawn) | > 100 µM | > 100 µM | > 100 µM | > 100 µM | – | > 100 µM | > 100 µM | 41.5 µM | – | > 100 µM | > 100 µM | – | – | – | – | –
3 | O=[N+]([O-])c1ccc2nc3ccc([N+](=O)[O-])cn3c2c1 | > 100 µM | > 100 µM | > 100 µM | > 100 µM | – | > 100 µM | > 100 µM | 65.5 µM | – | > 100 µM | > 100 µM | – | – | – | – | –
4 | Cn1c(N)c(/C=N/NC(=O)CC#N)c(=O)n(C)c1=O | > 100 µM | > 100 µM | > 100 µM | > 100 µM | – | > 100 µM | > 100 µM | > 100 µM | – | > 100 µM | > 100 µM | – | – | – | – | –
5 | O=C1c2cc(Cl)ccc2-n2c(noc2=O)C2CSCN12 (stereo not drawn) | > 100 µM | > 100 µM | > 100 µM | > 100 µM | – | > 100 µM | > 100 µM | > 100 µM | – | > 100 µM | > 100 µM | – | – | – | – | –
6 | N#Cc1c(N)c(-c2ccc(Cl)cc2)c(F)c2ccccc12 | > 100 µM | > 100 µM | > 100 µM | > 100 µM | – | > 100 µM | > 100 µM | > 100 µM | – | > 100 µM | > 100 µM | – | – | – | – | –
7 | O=C1CSC2(CC(/C=C/C=C/c3ccccc3)=NN2c2cccc(S(=O)(=O)O)c2)N1c1nc2ccccc2s1 (stereo not drawn) | > 100 µM | > 100 µM | > 100 µM | > 100 µM | – | > 100 µM | > 100 µM | > 100 µM | – | 55.6 µM | > 100 µM | – | – | – | – | –
8 | c1ccc(C2=NN3CN(N2)c2ccccc2OCCCOc2ccccc23)cc1 | > 100 µM | > 100 µM | > 100 µM | > 100 µM | > 100 µM | > 100 µM | – | > 100 µM | > 100 µM | – | – | – | – | – | – | –
9 | CCOC(=O)/C=C1\Nc2ccccc2C12CCc1c([nH]c3ccccc13)C2C(=O)OCC (stereo not drawn) | > 100 µM | > 100 µM | > 100 µM | > 100 µM | – | > 100 µM | > 100 µM | > 100 µM | – | 40.5 µM | > 100 µM | – | – | – | – | –
10 | COc1cc(C2C(Cl)C(=O)N2c2ccc(Br)cc2)cc(I)c1O (stereo not drawn) | > 100 µM | > 100 µM | > 100 µM | > 100 µM | – | 24.6 µM | > 100 µM | > 100 µM | – | > 100 µM | > 100 µM | – | – | – | – | –
11 | CN(C)c1ccc(-c2nc(-c3cc4c(ccc5ccccc54)oc3=O)cs2)cc1 | > 100 µM | > 100 µM | > 100 µM | > 100 µM | – | > 100 µM | > 100 µM | > 100 µM | – | > 100 µM | > 100 µM | – | – | – | – | –
12 | COC(=O)C12CC(C3CC31)C1CC12 (stereo not drawn) | > 100 µM | > 100 µM | > 100 µM | > 100 µM | > 100 µM | > 100 µM | > 100 µM | – | > 100 µM | – | – | – | – | – | – | –
13 | Oc1ccc(-c2c3c(nc4c2CCc2ccc(Br)cc2-4)-c2cc(Br)ccc2CC3)cc1 | 45.2 µM | 43.6 µM | 55.1 µM | 45.4 µM | – | 30.7 µM | 69.4 µM | 42.7 µM | – | 45 µM | 42.6 µM | – | – | – | – | –
14 | Cc1cnc(Cl)nc1C(C#N)c1nc2ccccc2n1C (stereo not drawn) | > 100 µM | > 100 µM | > 100 µM | > 100 µM | – | > 100 µM | > 100 µM | 43.4 µM | – | > 100 µM | > 100 µM | – | – | – | – | –
15 | CCCCCCCCCCCCC(=O)NCC(=O)NC(Cc1ccccc1)C(=O)Oc1ccc([N+](=O)[O-])cc1 (stereo not drawn) | > 100 µM | > 100 µM | > 100 µM | > 100 µM | – | > 100 µM | > 100 µM | 81 µM | – | > 100 µM | > 100 µM | – | – | – | – | –
16 | COc1ccc(C2CC(c3c(C)nn(-c4ccccc4)c3-c3ccc(C)cc3O)=NN2c2ccccc2)cc1 (stereo not drawn) | > 67.4 µM | > 100 µM | > 100 µM | > 100 µM | – | > 100 µM | > 100 µM | > 100 µM | – | > 100 µM | > 100 µM | – | – | – | – | –
17 | CCCCCCCCCCCCCCCCP(=O)(O)OP(=O)(O)OCC1OC(n2ccc(N)nc2=O)C(O)C1O (stereo not drawn) | > 100 µM and 37.1 µM | > 100 µM | > 100 µM | > 100 µM | – | > 100 µM | > 100 µM | > 100 µM | – | > 100 µM | > 100 µM | 54.5 µM and 9.05 µM | > 100 µM and 14.6 µM | 62.4 µM and 26 µM | > 100 µM and 41.8 µM | > 100 µM and 24.6 µM
18 | CC(C)=CC(=O)O[C@@H]1CC(C)(C)CC2C3=CCC4[C@]56CC[C@](O)(OC5)C(C)(C)C6CC[C@@]4(C)C3(C)CC[C@]21C(=O)O (stereo partly drawn) | 82.8 µM | > 100 µM | > 100 µM | > 100 µM | – | > 100 µM | > 100 µM | > 100 µM | – | > 100 µM | > 100 µM | – | – | – | – | –
19 | O=C1/C(=C/c2cccc(Oc3ccccc3)c2)N=C(c2ccccc2)N1c1nc2ccc(Sc3ccccc3)cc2[nH]1 | > 100 µM | 70.5 µM | 74.8 µM | 68.4 µM | – | > 100 µM | 85.6 µM | 65.8 µM | – | 33.1 µM | > 100 µM | – | – | – | – | –
20 | c1ccc2c(c1)CC1c3[nH]c4ccccc4c3CCN21 (stereo not drawn) | > 10 µM | > 10 µM | > 10 µM | > 10 µM | – | > 10 µM | > 10 µM | > 10 µM | – | > 10 µM | > 10 µM | – | – | – | – | –
